This is an account of results in ChEMBL document CHEMBL1287670, “Discovery and synthesis of 6,7,8,9-tetrahydro-5H-pyrimido-[4,5-d]azepines as novel TRPV1 antagonists” (Bioorg Med Chem Lett, 2010).

SMILES strings stand for the structures. ≈ marks a conversion by molar mass, not a printed value. Calls of active or inactive are those of the source. No cut-off for these calls is given here.

Series [1] can be described thus: Clearance in fasted Sprague-Dawley rat at 1 mg/kg, iv or 5 mg/kg, po. Particulars: in vivo. In kind it is ADME, organism-based.
The nature of series [2]: Aqueous equilibrium solubility of the compound at pH 2 by HPLC. In kind it is physicochemical. Particulars: aqueous medium.
Series [3] can be described thus: Aqueous equilibrium solubility of the compound in fasted-state simulated intestinal fluid at pH 6.8 by HPLC. In kind it is physicochemical.
The nature of series [4]: Cmax in fasted Sprague-Dawley rat at 1 mg/kg, iv or 5 mg/kg, po. In kind it is ADME, organism-based. Particulars: in vivo.
The nature of series [5]: AUC (infinity) in fasted Sprague-Dawley rat at 1 mg/kg, iv. Particulars: plasma. Details: time infinity, dose 1 mg/kg, route intravenous. In kind it is ADME, organism-based.
Series [6] in a line: Bioavailability in fasted Sprague-Dawley rat at 1 mg/kg, iv or 5 mg/kg, po. In kind it is ADME, organism-based. Particulars: in vivo.
Series [7] in a line: Volume of distribution at steady state in fasted Sprague-Dawley rat at 1 mg/kg, iv or 5 mg/kg, po. In kind it is ADME, organism-based. Particulars: in vivo, read-out: Vdss.
The nature of series [8]: Half life in fasted Sprague-Dawley rat at 1 mg/kg, iv or 5 mg/kg, po. In kind it is ADME, organism-based. Particulars: in vivo.
The nature of series [9]: AUC (infinity) in fasted Sprague-Dawley rat at 5 mg/kg, po. In kind it is ADME, organism-based. Details: time infinity, dose 5 mg/kg, route oral. Particulars: plasma.
A further series concerns Rattus norvegicus. In words: Antihyperalgesic activity against carrageenan-induced thermal hyperalgesia in rat assessed as paw withdrawal latency at 30 mg/kg, po administered 1 hr before carrageenan challenge. In kind it is functional, organism-based. Details: dose 30 mg/kg.
Series [10] addresses T1, Transient receptor potential cation channel subfamily V member 1 (Homo sapiens, UniProt Q8NER1). In words: Antagonist activity at human recombinant TRPV1 assessed as inhibition of capsaicin-induced in intracellular calcium levels by cell-based FLIPR assay. In kind it is functional.
Series [11] concerns the target Transient receptor potential cation channel subfamily V member 1 (Rattus norvegicus, UniProt O35433). In words: Binding affinity to rat TRPV1.
For series [12], the target named is T1, Transient receptor potential cation channel subfamily V member 1. In words: Binding affinity to human recombinant TRPV1.

T1 sequence (Q8NER1 whole entry): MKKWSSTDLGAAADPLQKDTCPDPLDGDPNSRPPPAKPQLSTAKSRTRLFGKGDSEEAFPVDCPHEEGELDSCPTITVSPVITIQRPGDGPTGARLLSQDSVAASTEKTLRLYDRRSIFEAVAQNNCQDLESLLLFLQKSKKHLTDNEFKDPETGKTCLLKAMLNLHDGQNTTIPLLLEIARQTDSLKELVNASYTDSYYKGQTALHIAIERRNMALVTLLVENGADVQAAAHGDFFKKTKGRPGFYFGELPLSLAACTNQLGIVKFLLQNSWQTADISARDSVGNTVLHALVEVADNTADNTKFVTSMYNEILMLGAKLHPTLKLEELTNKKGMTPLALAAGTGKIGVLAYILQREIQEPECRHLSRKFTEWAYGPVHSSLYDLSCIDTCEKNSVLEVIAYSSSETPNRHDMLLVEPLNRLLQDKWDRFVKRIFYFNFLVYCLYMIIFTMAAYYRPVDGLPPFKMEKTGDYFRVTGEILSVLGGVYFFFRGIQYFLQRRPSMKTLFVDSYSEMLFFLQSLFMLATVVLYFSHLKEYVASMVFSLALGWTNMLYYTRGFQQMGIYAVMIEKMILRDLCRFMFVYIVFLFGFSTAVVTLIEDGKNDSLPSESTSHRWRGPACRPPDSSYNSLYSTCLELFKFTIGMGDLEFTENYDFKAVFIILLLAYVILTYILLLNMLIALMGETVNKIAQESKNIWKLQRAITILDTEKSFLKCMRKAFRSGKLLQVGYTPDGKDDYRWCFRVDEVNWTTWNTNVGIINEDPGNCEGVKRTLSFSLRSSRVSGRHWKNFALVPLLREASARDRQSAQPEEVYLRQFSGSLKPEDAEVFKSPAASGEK
Sequence of Transient receptor potential cation channel subfamily V member 1 (Rattus norvegicus, UniProt O35433) (O35433 whole entry): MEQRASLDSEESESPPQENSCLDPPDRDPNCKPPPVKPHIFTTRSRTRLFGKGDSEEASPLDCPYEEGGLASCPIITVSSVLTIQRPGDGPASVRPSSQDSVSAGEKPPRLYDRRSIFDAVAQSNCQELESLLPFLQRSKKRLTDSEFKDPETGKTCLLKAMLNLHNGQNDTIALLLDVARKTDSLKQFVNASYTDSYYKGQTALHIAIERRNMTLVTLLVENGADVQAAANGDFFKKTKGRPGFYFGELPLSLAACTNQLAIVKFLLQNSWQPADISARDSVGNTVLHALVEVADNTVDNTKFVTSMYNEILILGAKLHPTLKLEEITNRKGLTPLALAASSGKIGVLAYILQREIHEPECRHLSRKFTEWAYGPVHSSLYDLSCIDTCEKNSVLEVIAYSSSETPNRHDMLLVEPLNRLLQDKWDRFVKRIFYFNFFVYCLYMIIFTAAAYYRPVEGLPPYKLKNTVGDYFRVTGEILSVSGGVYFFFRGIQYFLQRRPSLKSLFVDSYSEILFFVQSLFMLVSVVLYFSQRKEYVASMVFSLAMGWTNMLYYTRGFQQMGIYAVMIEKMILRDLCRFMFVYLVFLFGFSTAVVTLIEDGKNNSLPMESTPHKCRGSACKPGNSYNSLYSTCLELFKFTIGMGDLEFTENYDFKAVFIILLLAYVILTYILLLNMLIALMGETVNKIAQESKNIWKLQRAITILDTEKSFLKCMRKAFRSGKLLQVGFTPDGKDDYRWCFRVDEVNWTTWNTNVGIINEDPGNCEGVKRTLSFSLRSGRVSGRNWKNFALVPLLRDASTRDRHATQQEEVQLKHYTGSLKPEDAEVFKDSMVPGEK

The thermodynamic solubility is solubility found after equilibrating the solid with the medium. Broadly, the Cmax is the peak of the concentration-time curve. A word on the AUC(0-inf): it is the area under the concentration-time curve extrapolated to infinity. High values mean high exposure, low ones low exposure. What is called bioavailability is the share of a dose that reaches the circulation, judged against a reference dose that is usually intravenous. Low readings indicate poor availability, high ones good availability. By half-life is commonly meant how long it takes for the measured level to halve. Read a low half-life as rapid decline. In [1], `FC(F)(F)c1ccc(Nc2nc(N3CCOCC3)nc3c2CCN(c2ncccc2C(F)(F)F)CC3)cc1` showed a clearance of 51.7 mL/min/kg. Moreover, the thermodynamic solubility in series [2] is 5 µg/mL (≈ 9.29 µM); in series [3], 0.5 µg/mL (≈ 0.929 µM). The same molecule had a Cmax in [4] of 160 nM. Further, the AUC(0-inf) is 322 ng·h/mL in [5] and 236 ng·h/mL in series [9]. Besides, in [6], the bioavailability is 14%. Also, the Vd in series [7] came out at 4.7 L/kg. Further, the half-life in series [8] is 1.1 h. In the series with Rattus norvegicus, the outcome was Active.
What is called IC50 is the concentration that gives 50% inhibition. With `CC(C)(C)c1ccc(Nc2ncnc3c2CN(c2ncccc2C(F)(F)F)CC3)cc1`, the IC50 in series [10] is above 10000 nM.
Take `CC(C)(C)c1ccccc1Nc1ncnc2c1CCN(c1ncccc1C(F)(F)F)C2`: the concentration for half-maximal inhibition (IC50) in series [10] is above 20000 nM.
Take `O=C(O)c1cnc(N2CCc3nc(N4CCCCC4)nc(Nc4ccc(C(F)(F)F)cc4)c3CC2)c(Cl)c1`: in [3], the thermodynamic solubility is 218 µg/mL (≈ 399 µM). In addition, in series [10], the IC50 was 462 nM.
In the case of `CC(C)(C)c1ccc(Nc2ncnc3c2CCCN(c2ncccc2C(F)(F)F)C3)cc1`, the IC50 in series [10] turned out to be 2040 nM.
In the case of `COC(=O)c1cnc(N2CCc3nc(N4CCOCC4)nc(Nc4ccc(C(F)(F)F)cc4)c3CC2)c(Cl)c1`, the IC50 in series [10] was 176 nM.
The same measure, in the same setting: the value for `COc1nc(Nc2nc(C(C)C)nc3c2CCN(c2ncccc2C(F)(F)F)CC3)ccc1C(F)(F)F` was 2460 nM; that for `Cc1nc2c(c(Nc3ccc(C(C)(C)C)cc3)n1)CCN(c1ncccc1C(F)(F)F)C2` was 80 nM; that for `CC(C)(C)c1ccc(Nc2ncnc3c2CCN(c2ncccc2C(F)(F)F)C3)cc1` was 9 nM.
Broadly, the Ki is a measure of affinity in units of concentration, obtained from inhibition or displacement. In series [11], `C=C(C)C12C[C@@H](C)[C@@]34O[C@](Cc5ccccc5)(O[C@@H]1[C@@H]3C=C(COC(=O)Cc1ccc(O)c(OC)c1)C[C@]1(O)C(=O)C(C)=C[C@@H]41)O2` (single isomer, unassigned) [RESINIFERATOXIN] had a 50% inhibitory concentration (IC50) of 180 nM. Also, the Ki in series [12] is 14 nM.
As for `CC(C)c1nc2c(c(Nc3ccc(C(C)(C)C)cc3)n1)CCN(c1ncccc1C(F)(F)F)C2`, the IC50 in series [10] was 18 nM.
For `FC(F)(F)c1cccc(Nc2ncnc3c2CCN(c2ncccc2C(F)(F)F)C3)c1`, the IC50 in series [10] was 1450 nM.
As to `CC(C)(C)c1cccc(Nc2ncnc3c2CCN(c2ncccc2C(F)(F)F)C3)c1`, the IC50 in series [10] is 520 nM.
